Measurements taken from US20150190369A1, “QUERCETIN-3-GLUCOSIDE AND USES THEREOF” (priority 2012, published 2015).
“Also recorded” adds a separate entry of the source.

Assays:
[1] = test system: LDLR; assay: Semi-quantitative immunoblotting for LDLR protein in Huh7 cell lysates; format: cell-based, human
Procedure: (§1) At passage, Huh7 cells were routinely seeded at sub-confluence (˜10^6 cells/10-cm dish) in Dulbecco's modified Eagle's medium (DMEM) containing 10% fetal bovine serum (FBS) or LPDS (for experiments) and 50 μg/ml gentamycin. They were incubated overnight at 37° C., in a humidified 5% CO2-95% air atmosphere. Cells were treated or not with Q3G at defined concentrations and for defined lengths of time. Media were collected and centrifuged at 200 g for 5 min to sediment suspended cells; supernatants were collected and supplemented with 0.33 volumes of a 3×-concentrated PIC. Cell monolayers were rinsed with ice-cold phosphate-buffered saline (PBS); they were overlaid with […] the RIPA lysis buffer (50 mM Tris-HCl, pH 8, 150 mM NaCl, 1% NP-40, 0.5% Na-deoxycholate and 0.1% SDS) supplemented with 1× PIC. After 20 min in an ice bath, the lysates were centrifuged at 14,000 g and 4° C. for 20 min, and supernatants were collected. Conditioned media and lysates were stored at −20° C. until analysis.
Cell lysates were fractionated by SDS-PAGE and electrophoretically transferred onto a polyvinylidene fluoride membrane. The membrane was incubated with a goat antihuman LDLR, rabbit anti-PCSK9, or rabbit anti-SREBP-2 polyclonal antibody at 1:1000, 1:1500, and 1:200 dilutions, respectively, and then with a HRP-conjugated heterospecific secondary antibody against the primary Igs at a 1:2000 dilution. It was probed for HRP reaction using the Western Lightning Chemiluminescence Reagent Plus a chemiluminescence-based revelation kit. The signal was captured on X-ray film and immunoreactive bands analyzed by densitometry on a Syngene's ChemiGenius^2XE Bio Imaging System (Cambridge, Mass.) within the dynamic range of the instrument. The membrane was stripped and reprobed with the anti-β-actin monoclonal primary antibody at 1:20,000 dilution and HRP-conjugated rabbit anti-mouse IgG secondary antibody at a 1:5000 dilution. The densitometric values of β-actin bands were using for normalization of experimental samples.
Huh7 cells, hepatocyte derived cellular carcinoma cells, were incubated for 24 h in medium containing 10% lipoprotein-depleted serum (LPDS) and 0 to 10 μM Q3G. The level of LDLR mRNA was measured by quantitative real-time RT-PCR; that of the LDLR protein by semi-quantitative immunoblotting. Exposure to Q3G increased the intracellular content of LDLR mRNA in a concentration-dependent manner; the increase reached a 2× maximum at 2 μM (P<0.01, relative to no Q3G) (FIG. 3A). The content of the corresponding protein followed a similar pattern, but reached a 4× maximum at 4 μM (P<0.005) (FIG. 3B).
The kinetics of cellular accumulation of LDLR and PCSK9 at 2 μM Q3G was also examined: PCSK9 accumulation in the cells began after a 3-h lag; that of LDLR after 6-h lag (FIG. 6).
Statins induce expression of LDLR and PCSK9. […] We examined whether, at a 5 μM concentration of Q3G, simvastatin at 0.2 and 1 μM could further up regulate LDLR expression in Huh7 cells; and, inversely, whether the flavonol can reduce statin-stimulated PCSK9 secretion secreted by Huh7 cells.

[2] = test system: LDLR; assay: Immunoblotting for LDLR in MIN6 β-cells; format: cell-based, mouse
Procedure: (§2) The corresponding photographs of the immunoblotting results are also shown. MIN6 cells were incubated for 24 h in the presence of 16 μM Q3G. Cell lysates were analyzed by semi-quantitative immunoblotting using different antibodies successively.
(§3) Mouse insulinoma MIN6 cells were cultured in a 5% CO2-95% air atmosphere at 37° C. in DMEM medium containing 10% heat-inactivated fetal bovine serum, 1 mM Na-pyruvate, 2 mM L-glutamine, 25 mM D-glucose, and 28 μM β-mercaptoethanol. Q3G at a specific final concentration was supplemented to the culture medium and incubation was conducted for a selected length of time. Media were collected, spun at 600 g to sediment suspended cells, supplemented with 0.5 volumes of 3×RIPA-PIC (1×: 50 mM Tris-HCl, pH 8, 150 mM NaCl, 1% NP-40, 0.5% Na-deoxycholate and 0.1% SDS and PIC). Cells were lysed in 1×RIPA-PIC for immuno-blotting, or in RNA extraction buffer for qRT-PCR.
(§4) Cell lysates were fractionated by SDS-PAGE and electrophoretically transferred onto a polyvinylidene fluoride membrane. […] The signal was captured on X-ray film and immunoreactive bands analyzed by densitometry on a Syngene's ChemiGenius^2XE Bio Imaging System (Cambridge, Mass.) within the dynamic range of the instrument. […]

[3] = test system: ABCA1; assay: Immunoblotting for ABCA1 in MIN6 β-cells; format: cell-based, mouse; details: MIN6, Q3G-treated
Procedure: as §2, §3, §4

[4] = pigs, meal supplement; cited from earlier work
[5] = test system: proPCSK9; assay: Immunoblotting for PCSK9/proPCSK9 in MIN6 β-cells; format: cell-based, mouse; details: MIN6, 24 h, 16 μM Q3G versus untreated
Procedure: as §2, §3, §4

[6] = test system: ABCA1 mRNA; assay: qRT-PCR for ABCA1 mRNA in MIN6 β-cells; format: cell-based, mouse; details: MIN6, 24 h
Procedure: as §3
For the mouse studies, the levels of specific mRNAs were quantified in a PCR-based fluorogenic assay using the Taqman technology (Holland et al., 1991). Briefly, total RNA was extracted using the RNeasy extraction kit and reverse-transcribed into cDNA using random hexameric primers and the Superscript II RNase H-Reverse Transcriptase. […] Standard curves were established using varying amounts of pre-quantified amplicons of each transcript. […]
MIN6 β-cells were incubated for 24 h in the presence of different concentrations of Q3G. Total RNA was extracted and analyzed by qRT-PCR for the levels of mRNA for PCSK9, LDLR, ABCA1 and ABCG1.

[7] = test system: PCSK9 mRNA; assay: Quantitative RT-PCR for PCSK9 mRNA in Huh7 cells; format: cell-based, human; details: Huh7, 24 h, highest Q3G concentration tested (0 to 10 μM)
Procedure: as §1
Total RNA was extracted using the Qiagen RNeasy extraction kit. It was reverse transcribed into cDNA using random hexameric primers and the Superscript II RNase H-Reverse Transcriptase. […]
Standard curves were established using varying amounts of purified and quantified cDNA amplicons of each mRNA. […]

**Q.** Which results are given for `O=c1c(O[C@@H]2O[C@H](CO)[C@@H](O)[C@H](O)[C@H]2O)c(-c2ccc(O)c(O)c2)oc2cc(O)cc(O)c12` [Q3G, quercetin-3-O-β-D-glucoside]?
**A.** lag before LDLR accumulation in the cells ([1]; Huh7, 2 μM Q3G, time course): 6 h; increase of LDLR protein content (maximum) ([1]; Huh7, 24 h, 10% LPDS, 0 to 10 μM Q3G, maximum at 4 μM): 4 ×; level of cellular LDLR ([1]; Huh7, 24 h, co-treatment 5 μM Q3G with simvastatin 0.2 and 1 μM): increased cellular LDLR to the level induced by the flavonol alone; effect of high concentrations on stimulation of LDLR expression ([1]; Huh7, 24 h, high Q3G concentrations (>20 NM), concentration-dependent): attenuated; also recorded: attenuation; amount of cell-surface LDL-receptor versus untreated MIN6 β-cells ([2]; MIN6, 24 h, 16 μM Q3G): approximately 1.4 times; relative amount of LDLR protein compared with mRNA ([2]; MIN6, Q3G-treated): in concordance with the relative amounts of mRNA; relative amount of ABCA1 protein compared with mRNA [3]: in concordance with the relative amounts of mRNA; quercetin bioavailability versus quercetin aglycone and rutin [4]: significantly greater; intracellular content of proPCSK9 [5]: higher; effect on ABCA1 mRNA levels ([6]; Q3G 8 mM and above): reducing; increase of ABCA1 mRNA levels ([6]; Q3G up to 4 mM): about 50%; decrease of PCSK9 mRNA levels [7]: one-third
